# Earlier results as cited in patent publication US11535670B2, “Combination therapies of HDAC inhibitors and PD-L1 inhibitors” (HUYABIO International, LLC, priority 2016, dated 2022).
# Tests used:
# [1] = target: HDAC 2 (Homo sapiens, UniProt Q92769); conditions: cited from earlier work
# [2] = target: T1, HDAC 11 (Homo sapiens, UniProt Q96DB2); conditions: cited from earlier work
# T1 sequence (Q96DB2 1-347): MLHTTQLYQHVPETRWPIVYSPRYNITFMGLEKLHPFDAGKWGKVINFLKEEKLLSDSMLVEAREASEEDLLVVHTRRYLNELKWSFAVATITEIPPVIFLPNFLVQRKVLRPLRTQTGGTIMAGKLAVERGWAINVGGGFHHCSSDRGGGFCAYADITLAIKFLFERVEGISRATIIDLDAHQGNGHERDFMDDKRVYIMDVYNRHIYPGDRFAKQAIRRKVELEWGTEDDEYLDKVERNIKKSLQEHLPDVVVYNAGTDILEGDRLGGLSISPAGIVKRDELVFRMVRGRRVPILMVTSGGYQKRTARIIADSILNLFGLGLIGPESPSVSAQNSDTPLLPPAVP
# HDAC 2, sequence (Q92769 whole entry): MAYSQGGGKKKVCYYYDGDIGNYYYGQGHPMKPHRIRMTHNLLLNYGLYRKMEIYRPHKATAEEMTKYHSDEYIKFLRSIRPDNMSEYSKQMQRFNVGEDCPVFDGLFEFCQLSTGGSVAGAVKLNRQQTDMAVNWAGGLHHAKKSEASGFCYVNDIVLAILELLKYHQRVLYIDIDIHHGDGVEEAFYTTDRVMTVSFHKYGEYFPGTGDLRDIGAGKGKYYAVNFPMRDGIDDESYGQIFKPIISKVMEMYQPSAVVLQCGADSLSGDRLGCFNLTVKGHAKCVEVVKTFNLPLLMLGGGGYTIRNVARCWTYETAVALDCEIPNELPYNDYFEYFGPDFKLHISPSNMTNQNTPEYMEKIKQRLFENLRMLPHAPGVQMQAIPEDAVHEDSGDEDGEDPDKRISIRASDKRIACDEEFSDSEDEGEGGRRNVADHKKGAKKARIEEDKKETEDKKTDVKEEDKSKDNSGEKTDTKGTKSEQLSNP
smiles,measurement,setting,value
"Nc1cc(F)ccc1NC(=O)c1ccc(CNC(=O)/C=C/c2cccnc2)cc1 [HBI-8000, N-(2-amino-4-fluorophenyl)-4-[[[(2E)-1-oxo-3-(3-pyridinyl)-2-propen-1-yl]amino]methyl]benzamide]",inhibition of HDAC 2,[1],low nanomolar concentrations
same,activity at HDAC 2 compared with Entinostat,[1]; versus Entinostat,more active than Entinostat
same,activity at HDAC 11,[2],has activity
same,activity at HDAC 11 compared with Entinostat,[2]; versus Entinostat,more active than Entinostat
